Measurements from ChEMBL document CHEMBL1201862, “PubChem BioAssay data set” (2004).
“And” between values parts separate entries of the source, which are not always exact repeats. Equal values may be shown once.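 48-hour exposure; five concentrations; linearly interpolated endpoints. At the GI50, growth is halved.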 The source made the active and inactive calls. No stated cut-off is given here; in the data, active = GI50 up to about 1.1 µM and inactive = higher.

Assays:
Test in all cases: DTP human tumour cell line panel, 48 h
[1] = tested on: IGROV-1
[2] = tested on: BT-549
[3] = tested on: T47D
[4] = tested on: NCI-H23
[5] = tested on: LOX IMVI
[6] = tested on: UACC-257
[7] = tested on: K562
[8] = tested on: MDA-N
[9] = tested on: NCI/ADR-RES
[10] = tested on: OVCAR-4
[11] = tested on: SK-MEL-2
[12] = tested on: KM12
[13] = tested on: NCI-H522
[14] = tested on: HL-60
[15] = tested on: M14
[16] = tested on: UACC-62
[17] = tested on: DU-145
[18] = tested on: MOLT-4
[19] = tested on: NCI-H226

Measured: GI50

N#C/C=C1\C=CC(O)C(O)C1OC1OC(CO)C(O)C(O)C1O (configuration not stated)
inactive: [1] > 100 µM | [2] > 100 µM | [3] > 100 µM | [4] > 100 µM | [5] > 100 µM | [6] > 100 µM | [7] > 100 µM | [8] > 100 µM | [9] > 100 µM | [10] > 100 µM | [11] > 100 µM | [12] > 100 µM | [13] > 100 µM | [14] > 100 µM | [15] > 100 µM | [16] > 100 µM | [17] > 100 µM | [18] > 100 µM

CCOP(=O)(CCCC(O)CNc1cc(Cl)nc(N)n1)OCC (configuration not stated)
inactive: [1] > 100 µM | [2] > 100 µM | [3] > 100 µM | [4] > 100 µM | [5] > 100 µM | [6] > 100 µM | [7] > 100 µM | [19] > 100 µM | [8] > 100 µM | [9] > 100 µM | [10] > 100 µM | [11] > 100 µM | [12] > 100 µM | [13] > 100 µM | [14] > 100 µM | [16] > 100 µM | [17] > 100 µM | [18] > 100 µM

N=C(N)c1ccc(/N=N\c2c(O)ccc3cc4c(/N=N\c5ccc(C(=N)N)cc5)c(O)ccc4cc23)cc1
inactive: [1] 51.5 µM | [2] > 100 µM | [3] 96.8 µM | [6] > 100 µM | [7] 31.2 µM | [19] > 100 µM | [8] > 100 µM | [9] > 100 µM | [10] > 100 µM | [11] > 100 µM | [12] > 100 µM | [13] > 100 µM | [14] 25.2 µM | [15] > 100 µM | [16] > 100 µM | [17] > 100 µM | [18] 37.8 µM

COc1cc2c(=O)cnoc2cc1O
inactive: [1] > 100 µM | [2] > 100 µM | [3] > 100 µM | [4] > 100 µM | [6] > 100 µM | [7] > 100 µM | [19] > 100 µM | [8] > 100 µM | [9] > 100 µM | [10] > 100 µM | [11] > 100 µM | [12] > 100 µM | [13] > 100 µM | [14] > 100 µM | [15] > 100 µM | [16] > 100 µM | [17] > 100 µM | [18] > 100 µM

CSc1nc(Nc2ccccc2Cl)c2c(N)nn(C)c2n1
inactive: [1] > 100 µM | [2] > 100 µM | [3] 18.7 µM | [4] > 100 µM | [5] 16 µM | [6] > 100 µM | [7] > 100 µM | [19] > 100 µM | [8] > 100 µM | [9] 69.5 µM | [10] > 100 µM | [11] > 100 µM | [12] > 100 µM | [13] 75.2 µM | [15] > 100 µM | [16] > 100 µM | [17] > 100 µM | [18] > 100 µM

N#Cc1c(-c2ccccc2)c(C#N)c(=S)n(C2OCC(O)C(O)C2O)c1N (configuration not stated)
inactive: [1] > 100 µM | [2] > 100 µM | [3] 75.9 µM and 77.4 µM | [4] > 100 µM | [5] > 100 µM | [6] > 100 µM | [7] > 100 µM | [19] > 100 µM | [8] > 100 µM | [9] > 100 µM | [11] > 100 µM | [12] > 100 µM | [13] > 100 µM | [14] > 100 µM | [15] > 100 µM | [16] > 100 µM | [17] > 100 µM | [18] > 100 µM
